Source: patent publication US12344603B2 (Genentech, Inc., priority 2020, dated 2025)
Counter-ions that a name gives are not always drawn.

Target: IRE1α (Homo sapiens (Human), UniProt O75460, D688N)
Assay: IRE1α TR-FRET competition binding assay (IRE1α HTRF)
Settings: TR-FRET competition binding to kinase domain of IRE1α
Summary of the method: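 Kinase domain (0.25 nM) pre-bound to 2 nM Eu anti-His antibody for 1 h at 4° C in HEPES pH 7.5/MgCl2/Brij 35/DTT/gamma globulin buffer, then mixed with compounds and 2 nM Alexa 647 ATP-competitive probe. 1 h at room temperature; probe displacement read as TR-FRET (Ex 347 nm, Em 665/615 nm).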

Chain of IRE1α (O75460 547-977 D688N): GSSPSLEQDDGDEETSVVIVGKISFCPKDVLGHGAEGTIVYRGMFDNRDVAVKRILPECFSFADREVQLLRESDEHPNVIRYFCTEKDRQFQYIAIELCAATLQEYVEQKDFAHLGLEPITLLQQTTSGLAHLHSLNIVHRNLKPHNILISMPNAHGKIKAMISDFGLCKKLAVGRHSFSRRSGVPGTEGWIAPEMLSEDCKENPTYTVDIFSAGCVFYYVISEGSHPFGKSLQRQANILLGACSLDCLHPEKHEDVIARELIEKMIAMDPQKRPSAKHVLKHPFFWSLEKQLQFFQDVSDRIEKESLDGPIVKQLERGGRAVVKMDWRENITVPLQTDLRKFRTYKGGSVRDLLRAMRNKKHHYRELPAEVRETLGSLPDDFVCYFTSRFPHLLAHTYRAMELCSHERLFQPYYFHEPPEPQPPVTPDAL

IC50 [nM]	Compound
0.5	CC(C)n1c(=O)c(-c2ccc(NS(=O)(=O)C3CC4CCC3C4)c(F)c2)nc2cnc(N[C@H]3CC[C@H](N(C)C)CC3)nc21 (stereo partly drawn) [Example 281, N-(4-(2-(((1r, 4r)-4-(dimethylamino)cyclohexyl)amino)-8-isopropyl-7-oxo-7,8-dihydropteridin-6-yl)-2-fluorophenyl)bicyclo[2.2.1]heptane-2-sulfonamide]
0.2	CC(C)n1c(=O)c(-c2cc(F)c(NS(=O)(=O)CCC(C)(F)F)c(F)c2)nc2cnc(N[C@H]3CC[C@H](N(C)C)CC3)nc21 [Example 241, N-[4-[2-[[4-(Dimethylamino)cyclohexyl]amino]-8-isopropyl-7-oxo-pteridin-6-yl]-2,6-difluoro-phenyl]-3,3-difluoro-butane-1-sulfonamide]
0.5	CC(C)n1c(=O)c(-c2ccc(NS(=O)(=O)CCC(F)(F)F)c(F)c2)nc2cnc(N[C@@H]3CNC[C@@H](F)C3)nc21 [Compound 73, 3,3,3-Trifluoro-N-[2-fluoro-4-[2-[[(3S,5S)-5-fluoro-3-piperidyl]amino]-8-isopropyl-7-oxo-pteridin-6-yl]phenyl]propane-1-sulfonamide]
0.34	CC(C)n1c(=O)c(-c2cc(F)c(NS(=O)(=O)Cc3ccccc3F)c(F)c2F)cc2cnc(N[C@@H]3CNC[C@H](O)C3)nc21 [Compound 89, 1-(2-fluorophenyl)-N-(2,3,6-trifluoro-4-(2-(((3S,5R)-5-hydroxypiperidin-3-yl)amino)-8-isopropyl-7-oxo-7,8-dihydropyrido[2,3-d]pyrimidin-6-yl)phenyl)methanesulfonamide]
4.1	CC(C)n1c(=O)c(-c2cc(F)c(NC(=O)[C@H]3C[C@H]3F)c(F)c2F)cc2cnc(N[C@H]3CC[C@H](N(C)C)CC3)nc21 [Compound 63, (1R,2R)—N-(4-(2-(((1r,4r)-4-(Dimethylamino)cyclohexyl)amino)-8-isopropyl-7-oxo-7,8-dihydropyrido[2,3-d]pyrimidin-6-yl)-2,3,6-trifluorophenyl)-2-fluorocyclopropane-1-carboxamide hydrochloride]
0.31	Cc1nc(NS(=O)(=O)c2ccccc2C#N)ccc1-c1nc2cnc(N[C@H]3CC[C@H](N(C)CCF)CC3)nc2n(C(C)C)c1=O [Compound 194, 2-Cyano-N-(5-(2-(((1r,4r)-4-((2-fluoroethyl)(methyl)amino)cyclohexyl)amino)-8-isopropyl-7-oxo-7,8-dihydropteridin-6-yl)-6-methylpyridin-2-yl)benzenesulfonamide]
0.29	Cc1nc(NS(=O)(=O)c2ccccc2C#N)ccc1-c1cc2cnc(N[C@H]3CC[C@H](N(C)C)CC3)nc2n(C(C)C)c1=O [Compound 136, 2-Cyano-N-(5-(2-(((1r,4r)-4-(dimethylamino)cyclohexyl)amino)-8-isopropyl-7-oxo-7,8-dihydropyrido[2,3-d]pyrimidin-6-yl)-6-methylpyridin-2-yl)benzenesulfonamide]
0.34	CC(C)n1c(=O)c(-c2cc(F)c(NS(=O)(=O)c3ccccc3)c(F)c2F)cc2cnc(N[C@@H]3CNC[C@@H](F)C3)nc21 [Compound 54, N-(2,3,6-Trifluoro-4-(2-(((3S,5S)-5-fluoropiperidin-3-yl)amino)-8-isopropyl-7-oxo-7,8-dihydropyrido[2,3-d]pyrimidin-6-yl)phenyl)benzenesulfonamide]
0.18	CC(C)n1c(=O)c(-c2cc(F)c(NS(=O)(=O)Cc3ccc(F)cc3)c(F)c2F)cc2cnc(N[C@H]3CC[C@H](N(C)CCF)CC3)nc21 [Compound 141, 1-(4-Fluorophenyl)-N-(2,3,6-trifluoro-4-(2-(((1r,4r)-4-((2-fluoroethyl)(methyl)amino)cyclohexyl)amino)-8-isopropyl-7-oxo-7,8-dihydropyrido[2,3-d]pyrimidin-6-yl)phenyl)methanesulfonamide]
0.2	COCCN1CC2(CCC(Nc3ncc4cc(-c5ccc(NS(=O)(=O)CCC(F)(F)F)c(F)c5)c(=O)n(C(C)C)c4n3)CC2)C1 [Example 234, 3,3,3-Trifluoro-N-(2-fluoro-4-(8-isopropyl-2-((2-(2-methoxyethyl)-2-azaspiro[3.5]nonan-7-yl)amino)-7-oxo-7,8-dihydropyrido[2,3-d]pyrimidin-6-yl)phenyl)propane-1-sulfonamide]
0.09	Cc1ccc(CS(=O)(=O)Nc2ccc(-c3nc4cnc(N[C@@H]5CNC[C@@H](F)C5)nc4n(C(C)C)c3=O)cc2F)c(C#N)c1 [Compound 166, 1-(2-Cyano-4-methylphenyl)-N-(2-fluoro-4-(2-(((3S,5S)-5-fluoropiperidin-3-yl)amino)-8-isopropyl-7-oxo-7,8-dihydropteridin-6-yl)phenyl)methanesulfonamide]
0.27	Cc1nc(NS(=O)(=O)c2ccccc2Cl)ccc1-c1cc2cnc(N[C@H]3CC[C@H](N(C)CCF)CC3)nc2n(C(C)C)c1=O [Compound 145, 2-Chloro-N-(5-(2-(((1r,4r)-4-((2-fluoroethyl)(methyl)amino)cyclohexyl)amino)-8-isopropyl-7-oxo-7,8-dihydropyrido[2,3-d]pyrimidin-6-yl)-6-methylpyridin-2-yl)benzenesulfonamide]
20	CC(C)n1c(=O)c(-c2ccc(NS(=O)(=O)CCC(F)(F)F)c(F)c2)cc2cnc(NC3CCN(C)CC3)nc21 [Compound 200, 3,3,3-Trifluoro-N-(2-fluoro-4-(8-isopropyl-2-((1-methylpiperidin-4-yl)amino)-7-oxo-7,8-dihydropyrido[2,3-d]pyrimidin-6-yl)phenyl)propane-1-sulfonamide formate]
0.9	CC(C)n1c(=O)c(-c2ccc(NS(=O)(=O)C3CCC3)c(F)c2)nc2cnc(N[C@H]3CC[C@H](N(C)C)CC3)nc21 [Example 276, N-[4-[2-[[4-(Dimethylamino)cyclohexyl]amino]-8-isopropyl-7-oxo-pteridin-6-yl]-2-fluoro-phenyl]cyclobutanesulfonamide]
8.3	CCCS(=O)(=O)Nc1ccc(-c2cc3cnc(N[C@@H]4CNC[C@@H](F)C4)nc3n(CC)c2=O)c(F)c1F [Compound 13, N-(4-(8-Ethyl-2-(((3S,5S)-5-fluoropiperidin-3-yl)amino)-7-oxo-7,8-dihydropyrido[2,3-d]pyrimidin-6-yl)-2,3-difluorophenyl)propane-1-sulfonamide]
0.4	CC(C)n1c(=O)c(-c2ccc(NS(=O)(=O)CCC(C)(F)F)c(F)c2)nc2cnc(N[C@@H]3CNC[C@@H](F)C3)nc21 [Compound 84, 3,3-Difluoro-N-[2-fluoro-4-[2-[[(3S,5S)-5-fluoro-3-piperidyl]amino]-8-isopropyl-7-oxo-pteridin-6-yl]phenyl]butane-1-sulfonamide]
0.4	CC(C)n1c(=O)c(-c2ccc(NS(=O)(=O)C3C4CCCCC43)c(F)c2)nc2cnc(N[C@H]3CC[C@H](N(C)C)CC3)nc21 (stereo partly drawn) [Example 275, N-[4-[2-[[4-(Dimethylamino)cyclohexyl]amino]-8-isopropyl-7-oxo-pteridin-6-yl]-2-fluoro-phenyl]norcarane-7-sulfonamide]
7	Cc1nc(NS(=O)(=O)CCC(F)(F)F)ccc1-c1nc2cnc(N[C@H]3CC[C@H](N(C)C)CC3)nc2n(C(C)C)c1=O [Example 251, N-[5-[2-[[4-(Dimethylamino)cyclohexyl]amino]-8-isopropyl-7-oxo-pteridin-6-yl]-6-methyl-2-pyridyl]-3,3,3-trifluoro-propane-1-sulfonamide]
